Measurements from US20230416329A1, “A PEPTIDE WITH DISULFIDE BONDS AND INHIBITORY ACTIVITY AGAINST SERINE PROTEASES, DERIVED HYBRID PEPTIDES THEREOF, AND USES THEREOF” (INSTITUTE OF MATERIA MEDICA , CHINESE ACADEMY OF MEDICAL …, priority 2020, published 2023).
≈ marks a conversion by molar mass, not a printed value. Bridge positions count the residues as written; N and C are the ends. Peptide text beside a SMILES is read from it.

Experiments:
elastase = elastase (Sus scrofa, UniProt P00772); assay: in vitro; settings: for remaining at 0.025 h, 60 μM / remaining at 0.05 h, 60 μM / remaining at 0.075 h, 60 μM / remaining at 0.1 h, 60 μM / remaining at 0.15 h, 60 μM / remaining at 0.25 h, 60 μM / remaining at 0.5 h, 60 μM / remaining at 1 h, 60 μM: isolated enzyme elastase, pH 8, Residual peak area (%)/elastase
elastase, sequence (P00772 27-266): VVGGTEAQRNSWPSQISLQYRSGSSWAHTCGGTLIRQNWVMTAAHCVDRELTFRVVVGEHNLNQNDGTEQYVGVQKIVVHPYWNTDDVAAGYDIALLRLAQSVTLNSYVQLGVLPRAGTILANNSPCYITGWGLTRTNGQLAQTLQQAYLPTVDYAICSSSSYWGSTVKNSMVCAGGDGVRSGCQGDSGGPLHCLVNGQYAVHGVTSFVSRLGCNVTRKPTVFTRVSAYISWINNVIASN
Procedure: FIG. 19. […] At different time point, 25 μL aliquots was taken out, and 10% (v/v) TFA was added to terminate the reaction.
Mix by centrifugation at 8000 rpm for 30 seconds.
Arrange a certain volume of 0.5 μg/μL elastase solution in another sterile EP. Incubate the EP tubes containing peptides and enzymes at 37° C. for 5 min, and then add 4.5 μL of elastase solution to each EP tube containing peptides and mix well. Start timing and remove 25 μL of reaction solution at 1.5, 3.0, 4.5, 6.0, 9.0, 15.0, 30.0, and 60.0 min later, respectively. Add 3.75 μL of 10% TFA to terminate the reaction and mix well by centrifugation at 8000 rpm for 30 seconds.
Referring to the experimental method in Example 5, in vitro stability of salmon Calcitonin analogs with oral administration activity to the enzymatic hydrolysis by trypsin, chymotrypsin and elastase were performed.
Referring to the experimental method in Example 5, in vitro stability of IL-17A inhibitory peptides towards the enzymatic hydrolysis by trypsin, chymotrypsin and elastase were performed.

[1] = tested on: P407-induced hyperlipidemia mice; assay: Subcutaneous injection of PCSK9 inhibitory peptide, serum total cholesterol in P407-induced hyperlipidemia mice; format: in vivo, mouse
Procedure: The experimental peptide sample was prepared using PEG400 with a final concentration of […], and the final concentration of PEG400 is 20% (w/v). Normal ICR mice were fasted overnight with water ad libitum. The next day, all of the mice were randomly divided into model control group (Con) and polypeptide administration group (2 μmol/kg) according to body weight. Then, all of the mice were intraperitoneally injected with P407 (500 mg/kg) and fed with feed 2 hours later. Six mice were taken as a normal control group (Nor). After 24 hours, the mice in Con were subcutaneously injected with saline containing 20% PEG400, and the mice in the treatment group were given peptides. Then, the blood was taken at different time points after administration to determine the serum total cholesterol (TC) level. In consideration of the complexity of factors affecting serum LDL-C levels, especially the differences between single and long-term administration, the in vivo activity of PCSK9 inhibitory peptide is mainly observed for changes in serum TC levels.

[2] = target: T1, interaction of PCSK9-LDLR (Homo sapiens, UniProt Q8NBP7); assay: PCSK9-LDLR in vitro binding assay (inhibitory rate); settings: sample 50 μM, PCSK9 75 ng/mL
T1 construct: purchased MBL Company, Beijing, China CY-8150
T1 sequence (Q8NBP7 153-692): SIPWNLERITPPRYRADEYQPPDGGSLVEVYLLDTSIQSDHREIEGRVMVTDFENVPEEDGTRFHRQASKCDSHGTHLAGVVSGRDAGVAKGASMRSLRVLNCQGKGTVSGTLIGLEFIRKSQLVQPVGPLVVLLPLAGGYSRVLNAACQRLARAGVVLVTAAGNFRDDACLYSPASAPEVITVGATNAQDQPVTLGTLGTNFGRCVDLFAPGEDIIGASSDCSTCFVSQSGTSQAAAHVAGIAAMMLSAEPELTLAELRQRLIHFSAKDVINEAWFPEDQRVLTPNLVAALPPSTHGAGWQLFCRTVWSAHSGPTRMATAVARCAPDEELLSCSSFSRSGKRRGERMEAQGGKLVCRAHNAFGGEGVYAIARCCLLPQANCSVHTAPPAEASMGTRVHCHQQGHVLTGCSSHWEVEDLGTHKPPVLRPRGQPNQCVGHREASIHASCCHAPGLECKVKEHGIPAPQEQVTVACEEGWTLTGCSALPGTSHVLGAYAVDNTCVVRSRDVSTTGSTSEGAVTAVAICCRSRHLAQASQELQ
T1 sequence (Q8NBP7 31-152 partner limits assumed): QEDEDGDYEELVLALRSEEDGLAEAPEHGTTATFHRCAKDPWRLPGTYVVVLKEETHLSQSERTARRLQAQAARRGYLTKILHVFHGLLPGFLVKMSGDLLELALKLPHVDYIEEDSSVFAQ
Procedure: Polypeptide PCSK9_1-14 (SEQ ID NOs: 210-223) is dissolved in pure water or DMSO. 85 μL reaction buffer, 5 μL 1 mM polypeptide sample and 10 μL 750 ng/mL PCSK9 protein was pre-incubated at room temperature for 20 minutes before being added to a 96 well plate. The OD450/540 nm value was measured according to the instructions of the PCSK9-LDLR in Vitro Binding Assay Kit (CY-8150, MBL Company, Beijing, China). Solvent control: replace polypeptide with 5 μL solvent. In 100 μL reaction system, the final concentration of the polypeptide and PCSK9 is 50 μM and 75 ng/mL, respectively.
Inhibition rate of polypeptide (%)=(OD450/540 nm(solvent control)−OD450/540 nm (sample))/OD450/540 nm(solvent control)×100

trypsin = target: T2, trypsin (Bos taurus, UniProt P00760); assay: in vitro
T2 sequence (P00760 24-246): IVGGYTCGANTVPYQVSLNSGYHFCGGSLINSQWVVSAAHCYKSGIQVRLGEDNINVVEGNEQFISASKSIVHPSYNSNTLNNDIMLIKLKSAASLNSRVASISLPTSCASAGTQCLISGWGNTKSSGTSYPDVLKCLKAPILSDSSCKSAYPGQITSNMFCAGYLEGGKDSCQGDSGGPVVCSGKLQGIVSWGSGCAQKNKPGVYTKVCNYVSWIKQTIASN
In short: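 Peptides were preincubated for 5 min at 37 °C and then digested with 0.05 μg/μL trypsin solution (stock). Remaining intact peptide was quantified as RP-HPLC peak area.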

chymotrypsin = chymotrypsin (Bos taurus, UniProt P00766); assay: in vitro; settings: for remaining at 0.025 h, 60 μM / remaining at 0.05 h, 60 μM / remaining at 0.075 h, 60 μM / remaining at 0.1 h, 60 μM / remaining at 0.15 h, 60 μM / remaining at 0.25 h, 60 μM / remaining at 0.5 h, 60 μM / remaining at 1 h, 60 μM: isolated enzyme chymotrypsin, pH 7.8, Residual peak area (%)/chymotrypsin
In short: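 Peptide and 0.05 μg/μL chymotrypsin were preincubated at 37 °C for 5 min, then mixed. Aliquots taken from 1.5 up to 60.0 min were quenched with 10% TFA, and remaining peptide was measured as RP-HPLC peak area.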

normal ICR mice = assay: In vivo hypoglycemic activity of GLP-1 analogues, subcutaneous administration, oral glucose loading; parameters: species or system mouse; settings: normal ICR mice, 1 μmol/kg s.c., glucose 2 g/kg by gavage
Procedure: FIG. 21. In vivo hypoglycemic activities of GLP-1 analogues by subcutaneous administration. Normal ICR mice were subcutaneously injected with GLP-1 and its analogues or corresponding volumes of saline (1.0 μmol/kg, n=10). After 30 min, glucose solution (2 g/kg) was administered by gavage, and blood was collected from the tail tip at 30, 60, and 120 min after glucose administration. Blood glucose was measured using glucose oxidase method, and blood glucose values and area under the blood glucose curve (AUC) were calculated at each timepoint.
The day before the experiment, all of the animals were fasted for 15-16 hours with water ad libitum. On the day of the experiment, the animals were randomly divided according to body weight (n=10). Firstly, the blood was collected from the tail tip at 0 hour, and then the animals were administered subcutaneously with GLP-1 analog (SEQ ID NOs: 194-201, 1 μmol/kg) or saline. After 30 minutes, the animals were administered by gavage with glucose solution (2 g/kg), and the blood was collected from the tail tip at 30, 60, and 120 minutes later. Blood glucose was measured using glucose oxidase method. The blood glucose and area under the blood glucose-time curve (AUC) were calculated.

Residual peak area (%)/elastase (elastase) [%]	remaining at 0.025 h, 60 μM (elastase) [%]	remaining at 0.05 h, 60 μM (elastase) [%]	remaining at 0.075 h, 60 μM (elastase) [%]	remaining at 0.1 h, 60 μM (elastase) [%]	remaining at 0.15 h, 60 μM (elastase) [%]	remaining at 0.25 h, 60 μM (elastase) [%]	remaining at 0.5 h, 60 μM (elastase) [%]	remaining at 1 h, 60 μM (elastase) [%]	inhibition at 50 µM [2] [%]	Residual peak area (%)/chymotrypsin (chymotrypsin) [%]	remaining at 0.025 h, 60 μM (chymotrypsin) [%]	remaining at 0.05 h, 60 μM (chymotrypsin) [%]	remaining at 0.075 h, 60 μM (chymotrypsin) [%]	remaining at 0.1 h, 60 μM (chymotrypsin) [%]	remaining at 0.15 h, 60 μM (chymotrypsin) [%]	remaining at 0.25 h, 60 μM (chymotrypsin) [%]	remaining at 0.5 h, 60 μM (chymotrypsin) [%]	Molecule	stability towards elastase hydrolysis (in words) (elastase)	stability towards chymotrypsin hydrolysis (in words) (chymotrypsin)	also measured
100.0 ± 0.0	95.4 ± 0.9	90.6 ± 2.4	83.3 ± 1.8	85.5 ± 2.7	79.6 ± 0.8	66.8 ± 0.8	52.9 ± 1.5	28.9 ± 0.7	26 ± 10	100.0 ± 0.0	82.3 ± 5	80.7 ± 3.3	80.1 ± 2	79.1 ± 5.6	75.5 ± 1.6	71.2 ± 2.4	62.7 ± 2.6	CC(C)C[C@H](NC(=O)[C@H](Cc1ccc(O)cc1)NC(=O)[C@H](CCC(=O)O)NC(=O)[C@H](CCC(=O)O)NC(=O)[C@H](Cc1c[nH]c2ccccc12)NC(=O)[C@H](CO)NC(=O)[C@@H](NC(=O)[C@H](Cc1ccccc1)NC(=O)[C@@H](NC(=O)[C@@H](N)[C@@H](C)O)C(C)C)[C@@H](C)O)C(=O)N[C@@H](CC(=O)O)C(=O)N[C@@H](Cc1c[nH]c2ccccc12)C(=O)N[C@H](C(=O)O)C(C)C [PCSK9_1, reference compound]	easily degraded by chymotrypsin and elastase	easily degraded by chymotrypsin and elastase	serum total cholesterol (TC) level after subcutaneous injection (in words) ([1]; 2 μmol/kg single s.c., P407-induced hyperlipidemia mice): little effect on lowering total cholesterol; TC 30 min ([1]; serum, subcutaneous 2 μmol/kg, 30 min after administration, mean ± sd): 3925 ± 1330 µg/mL (≈ 2340 µM); TC 60 min ([1]; serum, subcutaneous 2 μmol/kg, 60 min after administration, mean ± sd): 3350 ± 1117 µg/mL (≈ 2000 µM); TC 90 min ([1]; serum, subcutaneous 2 μmol/kg, 90 min after administration, mean ± sd): 3832 ± 1259 µg/mL (≈ 2290 µM); TC 120 min ([1]; serum, subcutaneous 2 μmol/kg, 120 min after administration, mean ± sd): 370.4 ± 122.3 mg/dL; stability towards trypsin hydrolysis (in words) (trypsin): stable towards trypsin; remaining at 1 h, 60 μM (chymotrypsin): 47.7 ± 2%
100.0 ± 0.0	62.9 ± 4.8	59.3 ± 10.9	56.4 ± 5.3	55.3 ± 6.8	67.8 ± 9.3	48.9 ± 9.4	39.6 ± 1.2	48.3 ± 9.4	87 ± 1.1	100.0 ± 0.0	59.9 ± 8.2	47.1 ± 8	33.6 ± 3	33.9 ± 3.2	25.9 ± 3.3	14.5 ± 0.8	2.2 ± 0.1	CC[C@H](C)[C@@H]1NC(=O)[C@@H]2CCCN2C(=O)[C@@H]2CCCN2C(=O)[C@H]([C@@H](C)CC)NC(=O)[C@H](CO)NC(=O)[C@H](CCCCN)NC(=O)[C@H]([C@@H](C)O)NC(=O)[C@H](C)NC(=O)[C@H](CCCNC(=N)N)NC(=O)CNC(=O)[C@@H](NC(=O)[C@@H](NC(=O)[C@H](Cc2ccc(O)cc2)NC(=O)[C@H](CC(=O)O)NC(=O)[C@H](CC(C)C)NC(=O)[C@H](Cc2ccc(O)cc2)NC(=O)[C@H](CCC(=O)O)NC(=O)[C@H](CCC(=O)O)NC(=O)[C@@H](N)Cc2c[nH]c3ccccc23)C(C)C)CSSC[C@@H](C(=O)N[C@@H](Cc2ccccc2)C(=O)NCC(=O)N[C@H](C(=O)N[C@H](C(=O)N[C@@H](Cc2ccccc2)C(=O)N[C@H](C(=O)N[C@@H](CO)C(=O)O)[C@@H](C)O)C(C)C)[C@@H](C)O)NC1=O [PCSK9_6] (H-WEEYLDYVCGRATKSIPPICFGTVFTS-OH; disulfide 9-20)	certain inhibitory effects on the other two proteases chymotrypsin and elastase	certain inhibitory effects on the other two proteases chymotrypsin and elastase	remaining at 1 h, 60 μM (chymotrypsin): 1 ± 0.9%
–	–	–	–	–	–	–	–	–	–	–	–	–	–	–	–	–	–	Ac-Cys-Gly-Arg-Ala-Thr-Lys-Ser-Ile-Pro-Pro-Ile-Cys-Phe-Gly-Gly-Ile-Pro-Ile-Gly-Gly-His-Ala-Glu-Gly-Thr-Phe-Thr-Ser-Asp-Val-Ser-Ser-Tyr-Leu-Glu-Gly-Gln-Ala-Ala-Lys-Glu-Phe-Ile-Ala-Trp-Leu-Val-Lys-Gly-Arg-Gly-Gly-Lys-NH2 (Ac-CGRATKSIPPICFGGIPIGGHAEGTFTSDVSSYLEGQAAKEFIAWLVKGRGGK-NH2; disulfide 1-12 (inferred)) [Acetylated and Amidated SEQ ID NO: 198]	–	–	hypoglycemic activity, subcutaneous injection (in words) (normal ICR mice): did not show any significant differences in their hypoglycemic activity compared to the unmodified molecules
